Results on one molecule are retold here after US6630125B2, “18F-labeled choline analogs” (priority 2000, dated 2003).

Some results are limits rather than exact numbers.

As usually defined, the IC50 is the concentration that gives 50% inhibition.

Series [1] is described as follows: Stability of the FCH preparation (HPLC). The format is physicochemical. The following applies: room temperature for 7 hr, cation-exchange HPLC. Here is the method: (§1) The stability of FCH in its prepared form was evaluated by monitoring the radiochemical purity using the HPLC system described above. […] After an incubation of 2 hr at 37 C, the plasma was separated, the plasma proteins precipitated by adding two volumes of methanol, and the supernatant was analyzed for intact FCH by cation-exchange HPLC. […] FCH was also found to be stable in a blood samples taken from healthy human subjects (n=5).

Series [2] has as its system patients with breast cancer. Nature of the series: PET imaging in patients with breast cancer. Type of series: in vivo, human. The settings on record: person, metastatic breast cancer. Here is the method: (§2) In breast cancer patients, whole-body PET scans were obtained, beginning at 10 min post-administration of FCH. In patients with brain tumors, PET scans of the brain were obtained, beginning at 5 min post-administration of FCH.
Thirteen patients with metastatic breast cancer and one patient with both primary and metastatic breast cancer were each imaged with both FCH-PET and FDG-PET within a period of less than one month.
A person had undergone re-excision of right breast intraductal carcinoma 4 yr prior, then right modified radical mastectomy 3 yr prior followed by tamoxifen chemotherapy. Six months prior to the PET scans, metastatic breast cancer was detected by palpation (right breast sternal mass) and CT (mediastinal and hilar adenopathies, mass in right anterior pelvis). Tamoxifen therapy was stopped. […] Uptake of FCH was also observed in the corresponding tumors: sternal mass (SUV=14.6), mediastinal and hilar adenopathies (SUVs˜8.5), pelvic mass (SUV=6.5). […] Smaller metastases were indicated on the FCH-PET scan in the right chest wall and left lung that were not seen on the FDG-PET scan. Concerning the anterior pelvic tumor, there was observed a homogenous distribution of FDG across the tumor in the FDG-PET scan, whereas the FCH was preferentially distributed on the periphery of the tumor.

Series [3] can be described thus: Stability of FCH in human whole blood. The format is in vitro ADME. The settings on record: 2 hr, 37 C, blood of healthy human subjects (n=5). Here is the method:
as §1

Series [4] deals with PC-3 human prostate cancer cells. Nature of the series: Accumulation of radiotracers by cultured PC-3 cells. The format is cell-based. Here is the method: The incubation media utilized for the experiments differed according to the cancer cell type (Table 1). On the day of the study, the medium was refreshed using a volume of 1 ml in each well. Cells were incubated in control conditions or with the addition of metabolic and growth factor receptor inhibitors to test the sensitivity of uptake of the radiotracers to specific inhibitions. […] Following a 30-min incubation period, the radiotracers (e.g., FDG or FCH) were added (˜2 µCi/well) and the cells were incubated for 2 hr. The cells were washed three times with phosphate buffered saline solution, released from the plates by briefly incubating with 0.05% trypsin in DMEM, transferred to test tubes, and counted for F-18 radioactivity in a gamma counter. The amount of radioactivity in the cells was normalized by the dose administered to each well.
The present work studies the structure-activity relationships for purposes of optimization of the molecule for imaging prostate cancer. […] A number of structural analogs of choline were labeled as N-[^18F]fluoromethyl derivatives via the intermediate [^18F]fluorobromomethane (see Table 3). Uptake of the radiotracers was assessed in cultured PC-3 human prostate cancer cells and in a murine PC-3 xenograft model.

Series [5] has as its system patients with brain tumors. The series is described as follows: PET imaging in patients with brain tumors. Type of series: in vivo, human. The following applies: 5 patients with resected brain tumors, after injection. Here is the method:
as §2
PET imaging was performed in 5 patients with resected brain tumors for evaluation of recurrence of cancer. Dynamic images were obtained over the brain for the first 15 min after injection of FCH (2.5-6 mCi). Transmission scans were acquired before injection of radiotracer for purposes of attenuation correction. […] Radioactivity concentration in normal brain tissue was very low, allowing excellent delineation of the tumor. […] (See FIG. 12)

Series [6] deals with T1, yeast choline kinase (Saccharomyces cerevisiae, UniProt P20485).
T1 sequence (P20485 1-582): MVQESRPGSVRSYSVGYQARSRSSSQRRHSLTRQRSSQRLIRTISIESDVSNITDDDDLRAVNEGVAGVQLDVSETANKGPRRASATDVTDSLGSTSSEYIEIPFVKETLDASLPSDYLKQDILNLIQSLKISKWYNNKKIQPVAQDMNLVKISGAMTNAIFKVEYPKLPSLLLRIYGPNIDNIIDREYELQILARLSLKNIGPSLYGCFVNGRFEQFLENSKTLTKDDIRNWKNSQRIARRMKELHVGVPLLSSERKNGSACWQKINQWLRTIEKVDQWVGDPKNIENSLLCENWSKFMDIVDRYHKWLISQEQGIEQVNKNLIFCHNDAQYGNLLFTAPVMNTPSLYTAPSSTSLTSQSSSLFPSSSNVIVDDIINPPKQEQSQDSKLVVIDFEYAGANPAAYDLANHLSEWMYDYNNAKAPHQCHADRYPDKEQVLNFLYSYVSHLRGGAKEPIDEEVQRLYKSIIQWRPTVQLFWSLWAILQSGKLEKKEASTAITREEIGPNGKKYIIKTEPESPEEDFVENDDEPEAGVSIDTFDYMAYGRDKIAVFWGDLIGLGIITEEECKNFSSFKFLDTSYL
The series is described as follows: In vitro phosphorylation by yeast choline kinase. Type of series: biochemical. Here is the method:
The test tube was gently agitated throughout the incubation period. The reaction was stopped by placing the tube in a boiling water bath for 2 min. To serve as controls, some samples were placed directly in the boiling water bath after addition of all substrates. […] The percentage of radioactivity converted to the phosphorylated form was calculated.

On to `C[N+](C)(CF)CCO.[Cl-]` [FCH, dimethylfluoromethyl-2-hydroxyethylammonium chloride], for which the “radiochemical purity after storage of the preparation” value in series [1] is reported as greater than 99%. In series [2], the “SUV of pelvic tumor / pelvic mass” value is given as 6.5; the “SUV of sternal mass” value came to 14.6; the “SUVs of mediastinal and hilar adenopathies” value was roughly 8.5. In addition, the “stability in whole blood (HPLC)” value in series [3] is “completely intact”. Further, the “uptake in cultured PC-3 cells” value in series [4] is given as ~2 %/hr/100,000 cells plated. The “Uptake by PC-3 cancer cells, HC-3” value in series [4] (5 mM hemicholinium-3) is recorded as 0.18 ± 0.02 % dose/2 hr/105 cells plated. Also, in series [4] (HC-3 versus control), the “decrease in uptake by PC-3 cells with hemicholinium-3 (HC-3)” value stood at 89%. Further, the “uptake of FCH relative to HARA-1” value in series [4] (PC-3 prostate cancer cells) was found to be 3 fold. Also, the “accumulation by cultured PC-3 cells compared with other tracers” value in series [4] (control conditions) is “similarly to CH”. The “Uptake by PC-3 cancer cells, Control” value in series [4] (control, 2 hr incubation) is 1.58 ± 0.18 % dose/2 hr/105 cells plated. Further, the “Uptake by PC-3 cells” value in series [4] (inhibitor HC-3 (hemicholinium-3, 5 mM)) was 0.160 ± 0.009 % dose/2 hr/10^5 cells plated. Moreover, the “Uptake by PC-3 cells” value in series [4] (inhibitor none) is 1.574 ± 0.033 % dose/2 hr/10^5 cells plated. The “time to plateau of radiotracer concentration in the tumor” value in series [5] is on record as no more than 5 min. In series [6] (1 μM choline), the “phosphorylation rate compared with CH” value is “equivalent to CH”. The molecule also gave an In vitro phosphorylation in series [6] (1 μM choline, 25 mU/ml yeast choline kinase, 23° C., 10 min, n = 5) of 62.0 ± 8.8%. For the same molecule, the IC50 in series [6] (choline 1-10,000 μM, 25 mU/ml choline kinase, 10 min, 23 C, read-out: apparent IC50 for inhibition of phosphorylation of radiotracer by choline) was roughly 400 µM.
